Assay results reported in US7488577B2, “Method for measuring DNA polymerization and applications of the method” (Cavidi Tech AB, priority 2001, dated 2009).
Where two headings read alike, the source gives them in different places.

Key:
[1] = biological target: T1, recombinant DNA polymerase III (Staphylococcus aureus, UniProt P0C1P9); assay: Inhibition of DNA polymerase III with TMAU on different templates; format: biochemical; conditions: templates (CTGA)6-A12 or (CTG)6-A3; 1.25 ng/well enzyme, one hour, GTP […]
T1 construct: made in house
T1 sequence (P0C1P9 1-1435): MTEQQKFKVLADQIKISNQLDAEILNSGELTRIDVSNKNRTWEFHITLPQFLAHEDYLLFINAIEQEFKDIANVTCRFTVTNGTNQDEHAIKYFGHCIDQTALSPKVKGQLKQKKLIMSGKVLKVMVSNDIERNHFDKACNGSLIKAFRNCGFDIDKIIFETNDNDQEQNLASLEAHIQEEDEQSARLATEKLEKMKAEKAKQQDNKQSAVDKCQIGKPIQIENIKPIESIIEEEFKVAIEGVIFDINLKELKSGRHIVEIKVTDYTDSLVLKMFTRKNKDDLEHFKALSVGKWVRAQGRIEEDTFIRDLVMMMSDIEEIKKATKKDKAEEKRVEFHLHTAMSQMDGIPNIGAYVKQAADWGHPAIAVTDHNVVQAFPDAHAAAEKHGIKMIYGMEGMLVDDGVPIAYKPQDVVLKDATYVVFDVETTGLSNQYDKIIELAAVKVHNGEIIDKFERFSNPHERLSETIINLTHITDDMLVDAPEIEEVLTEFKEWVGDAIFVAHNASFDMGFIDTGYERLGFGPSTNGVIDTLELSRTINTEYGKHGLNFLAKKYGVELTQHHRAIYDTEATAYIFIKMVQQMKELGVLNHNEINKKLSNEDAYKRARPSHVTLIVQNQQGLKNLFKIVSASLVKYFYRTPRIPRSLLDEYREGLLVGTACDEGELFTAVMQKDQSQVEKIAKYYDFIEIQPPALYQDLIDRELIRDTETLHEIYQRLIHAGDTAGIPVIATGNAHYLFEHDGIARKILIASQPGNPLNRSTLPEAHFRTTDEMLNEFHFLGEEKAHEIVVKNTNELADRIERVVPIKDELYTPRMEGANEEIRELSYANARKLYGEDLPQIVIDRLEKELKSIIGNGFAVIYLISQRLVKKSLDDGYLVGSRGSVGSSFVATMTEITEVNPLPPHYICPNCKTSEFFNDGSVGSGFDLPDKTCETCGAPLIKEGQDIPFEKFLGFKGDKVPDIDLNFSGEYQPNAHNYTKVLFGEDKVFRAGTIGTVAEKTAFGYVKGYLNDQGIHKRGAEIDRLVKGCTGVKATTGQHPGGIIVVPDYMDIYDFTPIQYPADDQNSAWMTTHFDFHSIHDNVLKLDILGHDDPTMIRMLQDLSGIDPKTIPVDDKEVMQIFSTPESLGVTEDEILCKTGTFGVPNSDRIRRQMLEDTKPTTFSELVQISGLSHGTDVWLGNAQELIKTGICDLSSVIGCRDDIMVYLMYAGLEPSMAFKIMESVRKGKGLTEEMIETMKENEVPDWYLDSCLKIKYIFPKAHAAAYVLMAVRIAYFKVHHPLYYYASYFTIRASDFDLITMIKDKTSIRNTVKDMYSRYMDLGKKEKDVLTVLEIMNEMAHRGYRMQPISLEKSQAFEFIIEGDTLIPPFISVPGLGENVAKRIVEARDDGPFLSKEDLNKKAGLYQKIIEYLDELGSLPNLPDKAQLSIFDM
Method: DNA polymerase I (E. coli) was purchased from Amersham Bioscience. Recombinant DNA polymerase III from Staphylococus aureus was produced as described (Brown et al 1998). Mammalian DNA polymerase α (calf thymus) and β (human) were purchased from CHIMERx (Milwaukee). DNA polymerase γ was purified from beef heart as described (Pileur et al 2000).
(2-(N-Morpholino)ethanesulfonic acid) (MES) 40 mM pH 6.8, Potassium acetate (KAc) 40 mM, MgCl2 10 mM, spermine 2 mM, polyoxyethylenesorbitan monolaureate (Tween 20) 0.5%(v/v), EDTA 0.1 mM, dithiothreitol 1 mM and bovine serum albumin (BSA) 50 μg/ml.
6-anilinouracils are selective inhibitors of DNA polymerase III from gram-positive bacteria. […] The drug TMAU can be regarded as an analogue to […]. […]

[2] = tested on: T69S→SS/L210W/T215Y HIV-1 mutant RT; assay: Inhibition of second strand synthesis on variable DNA template, standard reaction solution versus reaction solution with ATP; format: biochemical; conditions: 4 pg/well RT, 19 hours
Method: The procedure for production of recombinant HIV-1 RTs with AZT specific mutations were similar but the mutations were introduced into the RT-coding region from the HXB2-D isolate.
The DNA polymerase γ and Retro DNA polymerase reaction mixture was reinforced with 3.2 mM ATP and pH was adjusted to 7.1.
The duration of the polymerization reactions was 19 hours. The RT activities obtained were recalculated into % of the activity of the same RT incubated in absence of inhibitor.
Symbols: HIV-1 wild type RT in standard DNA polymerase reaction solution (◯). HIV-1 wild type RT in DNA polymerase reaction solution with ATP (●), T69S→SS/L210W/T215Y HIV-1 mutant RT in standard DNA polymerase reaction solution (⋄),
T69S→SS/L210W/T215Y HIV-1 mutant RT in DNA polymerase reaction solution with ATP(♦).

[3] = biological target: T2, recombinant HIV 1 RT wild type (Human immunodeficiency virus type 1 group M subtype B, UniProt P03366); assay: biochemical
Description: The DNA-polymerase assay is based on a short primer with a specific sequence that is covalently bound to the wells of a 96 well microtiter plate. The reaction mixture contains a single stranded deoxynucleotide template with a part of the sequence complementary to the primer and the four deoxynucleoside triphosphates. Thymidine triphosphate is, however, replaced by 5-bromodeoxyuridine 5′-triphosphate (BrdUTP). The amount of bromodeoxyuridine monophosphate (BrdUMP) incorporated into DNA during the polymerase reaction, is detected with an alkaline phosphatase (Ap) conjugated anti-BrdU monoclonal antibody. An Ap substrate, 4-methylumbelliferyl phosphate, is used for fluorimetric product detection.
The inhibition studies were performed in a modified DNA polymerase assay. The drugs were serially diluted in five steps and 25 μl aliquots were transferred to each well in the microtiter plate, mixed with 100 μl DNA polymerase reaction mixture and the enzyme reaction was initiated by addition of 25 μl enzyme dilution. […] The polymerase reaction was allowed to proceed over-night (16-24 hours at 33° C.). Thereafter the reaction was terminated by a wash of the plate.
The polymerase activity at each inhibitor concentration was recalculated into % of the activity of a control in absence of inhibitor. The results are depicted in FIG. 3.
(§1) The effects of three non-nucleoside inhibitors on indicated recombinant HIV 1 RT were determined according to “Protocol for determination of inhibition of second strand synthesis on variable DNA template” using DNA polymerase γ and Retro DNA polymerase base buffer and “Protocol for determination of inhibition of reverse transcription ” respectively.

[4] = biological target: T2, recombinant HIV 1 RT wild type; assay: biochemical; set-up: The mutated and native forms of RT were isolated as previously described; made in house; conditions: IC50 on template prA, RT type wt, first strand synthesis, 2 hours
Method: In short, poly(rA) covalently bound to the wells of a 96 well microtiter plate serves as template for the incorporation of 5-bromodeoxyuridine 5′-triphosphate (BrdUTP) during the reverse transcription step at 33° C. The amount of bromodeoxyuridine monophosphate (BrdUMP) incorporated into DNA, is detected with an alkaline phosphatase (Ap) conjugated anti-BrdU monoclonal antibody. An Ap substrate, 4-methylumbelliferyl phosphate, is finally used for fluorimetric detection.
as §1

O=c1cc(Nc2ccc3c(c2)CCC3)[nH]c(=O)[nH]1 [TMAU, 6-([3,4-trimethylene]anilino)uracil]
Inhibitory capacity towards DNA polymerase III [1]: varying inhibitory capacity depending on the sequence of the template used

C[C@@H](Cn1cnc2c(N)ncnc21)OCP(=O)(O)OP(=O)(O)OP(=O)(O)O
Increase of the difference in drug susceptibility between wild type and mutant RT [2]: approximately 10 fold

Nc1ccn(C2CCC(COP(=O)(O)OP(=O)(O)OP(=O)(O)O)O2)c(=O)n1 (stereo not shown) [ddCTP, 2′3′ dideoxy cytidine triphosphate]
IC50 [3]: 20 nM

Nc1ncnc2c1ncn2C1CCC(COP(=O)(O)OP(=O)(O)OP(=O)(O)O)O1 (stereo not shown) [ddATP, 2′3′ dideoxyadenosine triphosphate]
IC50 [3]: 80 nM

O=C(O)P(=O)(O)O [Foscarnet]
IC50 [3]: 500 nM
IC50 ([4]; RT amount 20 fg): 600 nM
IC50 ([4]; RT amount 100 fg): 700 nM
